How the values were obtained:
[1] = Cytotoxicity against MDCK cells assessed as reduction in cell viability measured after 48 hrs by WST-1 assay; assay type: toxicity, cell-based, Canis lupus familiaris; settings: dog
[2] = test system: Influenza A virus; assay: Antiviral activity against influenza A virus A/Sydney/5/1997 (H3N2) infected in MDCK cells assessed as reduction in cytopathic effect incubated for 48 hrs by crystal violet staining based plaque assay; assay type: functional, organism-based
[3] = test system: Influenza A virus; assay: Antiviral activity against influenza A virus A/WSN/33 (H1N1) infected in MDCK cells assessed as reduction in cytopathic effect incubated for 48 hrs by crystal violet staining based plaque assay; assay type: functional, organism-based
[4] = test system: Influenza A virus; assay: Antiviral activity against influenza A virus A/PuertoRico/8/1934 (H1N1) infected in MDCK cells assessed as reduction in cytopathic effect incubated for 48 hrs by crystal violet staining based plaque assay; assay type: functional, organism-based
[5] = test system: Influenza A virus; assay: Antiviral activity against influenza A virus A/duck/Hokkaido/Vac-3/2007 (H5N1) infected in MDCK cells assessed as reduction in cytopathic effect incubated for 48 hrs by crystal violet staining based plaque assay; assay type: functional, organism-based
[6] = test system: Influenza A virus; assay: Antiviral activity against Influenza A virus A/Vietnam/1203/04 (H5N1) HALo infected in human A549 cells pretreated with cell for 2 hrs followed by viral infection for 1 hrs by plaque assay; assay type: functional, organism-based
[7] = test system: Influenza A virus; assay: Antiviral activity against Influenza A virus A/Panama/2007/99 (H3N2) infected in human A549 cells pretreated with cell for 2 hrs followed by viral infection for 1 hrs by plaque assay; assay type: functional, organism-based
[8] = test system: Hepatitis C virus; assay: Antiviral activity against Hepatitis C virus infected in human Huh7.5 cells pretreated with cell for 2 hrs followed by viral infection for 1 hrs by plaque assay; assay type: functional, organism-based, Hepacivirus hominis
[9] = test system: Influenza A virus; assay: Antiviral activity against Influenza A virus A/WSN/33 (H1N1) infected in human A549 cells pretreated with cell for 2 hrs followed by viral infection for 1 hrs by plaque assay; assay type: functional, organism-based
[10] = test system: rhinovirus B14; assay: Antiviral activity against Human rhinovirus 14 infected in human HeLa Ohio cells pretreated with cell for 2 hrs followed by viral infection for 1 hrs by plaque assay; assay type: functional, organism-based; settings: Rhinovirus B
[11] = target: Phosphatidylinositol 4-phosphate 3-kinase C2 domain-containing subunit beta (Homo sapiens, UniProt O00750); assay: Inhibition of PIK3C2beta (unknown origin) by KINOMEscan method
Sequence of Phosphatidylinositol 4-phosphate 3-kinase C2 domain-containing subunit beta (O00750 whole entry, the tested form may be a part): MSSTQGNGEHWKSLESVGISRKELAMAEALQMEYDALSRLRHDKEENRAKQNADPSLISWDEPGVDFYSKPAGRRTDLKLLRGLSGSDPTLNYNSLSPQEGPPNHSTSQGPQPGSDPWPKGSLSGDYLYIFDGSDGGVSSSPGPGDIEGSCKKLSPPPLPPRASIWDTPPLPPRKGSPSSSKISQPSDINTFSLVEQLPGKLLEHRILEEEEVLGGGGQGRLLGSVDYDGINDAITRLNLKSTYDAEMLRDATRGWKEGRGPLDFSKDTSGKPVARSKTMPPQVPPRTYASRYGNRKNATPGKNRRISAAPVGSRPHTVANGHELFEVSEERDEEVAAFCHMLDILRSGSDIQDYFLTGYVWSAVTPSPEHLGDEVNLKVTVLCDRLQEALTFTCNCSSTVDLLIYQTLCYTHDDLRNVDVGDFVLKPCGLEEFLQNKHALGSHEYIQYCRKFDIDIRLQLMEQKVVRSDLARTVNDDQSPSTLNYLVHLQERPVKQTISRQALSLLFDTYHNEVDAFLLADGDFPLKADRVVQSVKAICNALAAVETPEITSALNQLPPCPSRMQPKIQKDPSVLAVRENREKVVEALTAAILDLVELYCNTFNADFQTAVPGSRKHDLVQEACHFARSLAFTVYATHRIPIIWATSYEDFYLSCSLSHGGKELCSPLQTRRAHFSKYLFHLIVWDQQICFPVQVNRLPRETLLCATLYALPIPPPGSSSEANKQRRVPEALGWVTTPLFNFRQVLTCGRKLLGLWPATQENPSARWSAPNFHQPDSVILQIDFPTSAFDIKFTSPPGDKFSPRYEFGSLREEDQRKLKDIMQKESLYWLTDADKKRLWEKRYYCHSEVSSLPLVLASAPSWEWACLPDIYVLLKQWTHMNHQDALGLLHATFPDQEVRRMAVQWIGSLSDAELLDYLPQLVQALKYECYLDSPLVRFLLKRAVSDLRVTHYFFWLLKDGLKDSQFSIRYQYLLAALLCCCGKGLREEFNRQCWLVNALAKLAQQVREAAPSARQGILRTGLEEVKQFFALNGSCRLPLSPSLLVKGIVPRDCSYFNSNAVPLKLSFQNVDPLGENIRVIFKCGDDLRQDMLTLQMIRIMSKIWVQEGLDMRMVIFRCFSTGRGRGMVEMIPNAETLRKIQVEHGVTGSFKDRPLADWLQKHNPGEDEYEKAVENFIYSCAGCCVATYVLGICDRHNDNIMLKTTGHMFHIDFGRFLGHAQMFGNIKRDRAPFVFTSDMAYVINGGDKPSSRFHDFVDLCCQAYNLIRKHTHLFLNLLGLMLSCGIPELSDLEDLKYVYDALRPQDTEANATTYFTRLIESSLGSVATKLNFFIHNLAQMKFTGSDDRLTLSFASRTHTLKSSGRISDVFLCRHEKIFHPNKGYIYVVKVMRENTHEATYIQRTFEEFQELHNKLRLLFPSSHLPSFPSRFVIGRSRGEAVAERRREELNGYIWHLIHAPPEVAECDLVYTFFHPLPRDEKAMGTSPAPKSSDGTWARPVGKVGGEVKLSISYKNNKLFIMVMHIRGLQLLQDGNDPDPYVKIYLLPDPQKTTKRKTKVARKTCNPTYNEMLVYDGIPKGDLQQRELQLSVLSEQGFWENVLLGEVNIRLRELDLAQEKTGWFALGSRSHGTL

[12] = test system: A549; assay: Cytotoxicity against human A549 cells incubated for 48 hrs by cell Titer-Glo assay; assay type: functional
[13] = test system: Influenza B virus; assay: Antiviral activity against influenza B virus infected in HEK293T cells assessed as reduction in cytopathic effect incubated for 24 hrs; assay type: functional, organism-based; settings: HEK-293T
[14] = test system: Influenza A virus; assay: Antiviral activity against influenza A virus A/WSN/1933 (H1N1) infected in HEK293T cells assessed as reduction in cytopathic effect incubated for 24 hrs; assay type: functional, organism-based; settings: HEK-293T
[15] = Cytotoxicity against MDCK cells assessed as reduction in cell viability measured after 48 hrs by CCK-8 assay; assay type: toxicity, cell-based, Canis lupus familiaris; settings: dog
[16] = Selectivity index, ratio of IC50 for cytotoxicity against MDCK cells to EC50 for antiviral activity Influenza A virus A/California/04/2009 (H1N1) infected in MDCK cells; assay type: toxicity, cell-based; settings: dog, read-out: Selectivity Index
[17] = test system: Influenza A virus; assay: Antiviral activity against Influenza A virus A/California/04/2009 (H1N1) infected in MDCK cells pretreated with cell for 30 mins followed by viral infection and measured for 72 hrs by luminescence based assay; assay type: functional, organism-based
[18] = test system: Influenza A virus; assay: Antiviral activity against Influenza A virus A/Vietnam/1203/2004 (H5N1) infected in MDCK cells pretreated with cell for 30 mins followed by viral infection and measured for 72 hrs by luminescence based assay; assay type: functional, organism-based
[19] = Selectivity index, ratio of IC50 for cytotoxicity against MDCK cells to EC50 for antiviral activity Influenza A virus A/Vietnam/1203/2004 (H5N1) infected in MDCK cells; assay type: toxicity, cell-based; settings: dog, read-out: Selectivity Index
[20] = Cytotoxicity against MDCK cells assessed as reduction in cell viability measured after 72 hrs by CCK8 assay; assay type: toxicity, cell-based, Canis lupus familiaris; settings: dog
[21] = test system: Influenza A virus; assay: Antiviral activity against influenza A virus A/Anhui/1/2005 (H5N1) infected in MDCK cells assessed as reduction in cytopathic effect incubated for 72 hrs by CPE assay; assay type: functional, organism-based
[22] = test system: Influenza A virus; assay: Antiviral activity against Influenza A virus A/PR/8/34 (H1N1) infected in human A549 cells pretreated with cell for 3 hrs followed by viral infection and measured for 24 hrs; assay type: functional, organism-based
[23] = Cytotoxicity against human A549 cells incubated for 48 hrs by neutral red uptake assay; assay type: toxicity, cell-based
[24] = Cytotoxicity against MDCK cells assessed as reduction in cell viability measured after 72 hrs by fluorescence based assay; assay type: toxicity, Canis lupus familiaris; settings: dog
[25] = test system: Influenza A virus; assay: Antiviral activity against influenza A virus A/WSN/1933 (H1N1) infected in MDCK cells assessed as reduction in cytopathic effect by fluorescence based analysis; assay type: functional, organism-based
[26] = test system: Influenza A virus; assay: Antiviral activity against Influenza A virus A (H1N1); assay type: functional, organism-based
[27] = Cytotoxicity against MDCK cells; assay type: toxicity, cell-based, Canis lupus familiaris; settings: dog
[28] = Cytotoxicity against MDCK cells assessed as reduction in cell viability measured after 72 hrs by MTT assay; assay type: toxicity, cell-based, Canis lupus familiaris; settings: dog
[29] = test system: Influenza A virus; assay: Antiviral activity against influenza A virus H5N1,A/Vietnam/1194/2004 infected in MDCK cells assessed as reduction in plaque formation incubated for 72 hrs by crystal violet staining based analysis; assay type: functional, organism-based; settings: H5N1,A/Vietnam/1194/2004, MDCK
[30] = test system: Influenza A virus; assay: Antiviral activity against influenza A virus H1N1,A/WSN/1933 infected in MDCK cells assessed as reduction in plaque formation incubated for 72 hrs by crystal violet staining based analysis; assay type: functional, organism-based; settings: H1N1,A/WSN/1933, MDCK
[31] = test system: Influenza A virus; assay: Antiviral activity against Influenza A virus A/California/7/2009 (H1N1) infected in MDCK cells measured after 24 hrs post infection; assay type: functional, organism-based
[32] = test system: Influenza B virus; assay: Antiviral activity against influenza B virus B/Florida/04/2006 infected in MDCK cells measured after 24 hrs post infection; assay type: functional, organism-based; settings: B/Florida/04/2006, MDCK
[33] = Cytotoxicity against MDCK cell incubated for 72 hrs by EZ-Cytox cell viability assay; assay type: toxicity, cell-based, Canis lupus familiaris; settings: dog, MDCK cells
[34] = test system: Influenza A virus; assay: Antiviral activity against Influenza A virus A/Perth/16/2009 (H3N2) infected in MDCK cells measured after 24 hrs post infection; assay type: functional, organism-based

**Q.** Which CC50 at 48 h [1] does the source give for `OC(CN1CCCCC1)Cn1c2c(c3ccccc31)CCCC2` (stereo unspecified) here?
**A.** Its CC50 at 48 h is over 200 µM.

**Q.** And the EC50 [2]?
**A.** The EC50 was 44.7 µM.

**Q.** And the EC50 [3]?
**A.** The EC50 was 35.6 µM.

**Q.** What about the EC50 [4] of the same compound?
**A.** The EC50 was 30.7 µM.

**Q.** What about the EC50 [5] of the same compound?
**A.** The EC50 was 39.8 µM.

**Q.** With `O=C(Cc1cccs1)Nc1cccc(-c2ccc3nnc(-c4cccnc4)n3n2)c1` as the compound, how does the EC50 [6] read?
**A.** The EC50 was 1.77 µM.

**Q.** What about the EC50 [7] of the same compound?
**A.** Its EC50 is 1.22 µM.

**Q.** What about the EC50 [8] of the same compound?
**A.** Its EC50 is 0.76 µM.

**Q.** What about the EC50 [9] of the same compound?
**A.** Its EC50 is 2.05 µM.

**Q.** What about the EC50 [10] of the same compound?
**A.** Its EC50 is 0.05 µM.

**Q.** What about the EC50 [11] of the same compound?
**A.** Its EC50 is 0.43 µM.

**Q.** What about the CC50 [12] of the same compound?
**A.** Its CC50 is over 50 µM.

**Q.** Which results are given for `C/C(=C\CC/C(C)=C/C[C@]1(O)C(=O)c2c(O)cc(C)c3c(O)c(C)c(O)c(c23)C1=O)CC/C=C(\CO)CC[C@@H](O)C(C)(C)O`?
**A.** EC50 [13]: 1.22 µM; EC50 [14]: 0.28 µM; CC50 at 48 h [15]: > 100 µM

**Q.** What does the source list for `CC1CC2=C(NC(=O)NC2c2ccc(O)c(Br)c2)c2ccccc21` (stereo unspecified)?
**A.** selectivity ratio [16]: > 510; EC50 [17]: 0.098 µM; EC50 [18]: 0.046 µM; selectivity ratio [19]: > 1090

**Q.** What does the source list for `CCCC(=O)c1c(O)c(CC2=C(O)C(C)(C)C(O)=C(C(C)=O)C2=O)c(O)c(Cc2c(O)c(CC3=C(O)C(C)(C)C(O)=C(C(C)=O)C3=O)c(O)c(C(=O)CCC)c2O)c1O`?
**A.** CC50 at 72 h [20]: > 400 µM; EC50 [21]: 16.6 µM

**Q.** Which EC50 [22] does the source give for `O=C(CSc1nnnn1-c1ccccc1)NCc1ccccc1` here?
**A.** Its EC50 is 46.4 µM.

**Q.** What about the CC50 at 48 h [23] of the same compound?
**A.** Its CC50 at 48 h is over 150 µM.

**Q.** With `CCCCN1Cc2ccccc2Oc2ccccc2S1(=O)=O` as the compound, how does the CC50 at 72 h [24] read?
**A.** The CC50 at 72 h was over 100 µM.

**Q.** What about the EC50 [25] of the same compound?
**A.** The EC50 was 0.38 µM.

**Q.** For `Cc1cccc(N2CCN(Cc3n[nH]c(=O)n3Cc3cccc(F)c3)CC2)c1C`, which CC50 at 72 h [24] is on record?
**A.** The CC50 at 72 h was over 100 µM.

**Q.** And the EC50 [25]?
**A.** The EC50 was 0.17 µM.

**Q.** What does the source list for `C=C1Cc2cc(C(F)(F)F)ccc2C(=O)NCC(C)/C(=N/OC)CCCCOC1=O` (stereo unspecified)?
**A.** EC50 [26]: 0.57 µM; CC50 [27]: > 100 µM

**Q.** For `Cc1cc(C(=O)NC(C)C23CC4CC(CC(C4)C2)C3)c(C)o1` (stereo unspecified), which CC50 at 72 h [28] is on record?
**A.** Its CC50 at 72 h is 73 µM.

**Q.** What about the EC50 [29] of the same compound?
**A.** Its EC50 is 0.08 µM.

**Q.** And the EC50 [30]?
**A.** The EC50 was 0.069 µM.

**Q.** For `COc1ccccc1-c1cc2c(Nc3ccccc3)nccc2n1C`, which EC50 [31] is on record?
**A.** The EC50 was 1.17 µM.

**Q.** What about the EC50 [32] of the same compound?
**A.** Its EC50 is 12.9 µM.

**Q.** What about the CC50 at 72 h [33] of the same compound?
**A.** Its CC50 at 72 h is 27.2 µM.

**Q.** What about the EC50 [34] of the same compound?
**A.** Its EC50 is 8.29 µM.

— ChEMBL document CHEMBL5376009 (RSC Med Chem, 2024)
